Values after ≈ are worked out from the molar mass of the structure shown.
Assays:
[1] = system: Enterobacter cloacae GN 5797; test: Induction of β-lactamase by β-lactam antibiotics; type: cell-based; conditions: induced β-lactamase activity of crude enzyme; Concentration 10 µg/ml; Incubation time 3 hr; Substrate: 100 µM of cephaloridine
Method: The assay method for induction of β-lactamase by β-latam antibiotics was as follows: The test organism, Enterobacter cloacae GN 5797, was grown overnight in Mueller Hinton broth (Dlfco Laboratories, Detroit, Mich.) at 37°C. The culture was diluted l0-fold into 20 ml of the flesh medium and incubated with shaking at 37°C. After 2 hours of incubation, antibiotics were added to final concentrations of 50 µg/ml, l0 µg/ml and l µg/ml, and the incubation was continued. At l hour intervals after the addition of antibiotic, 5 ml of sample was taken, and immediately added with 0.l ml of 50 mM sodium azide. The cells were harvested and washed with 50 mM phosphate buffer (pH 7.0). The cells were suspended in 5 ml of 50 mM phosphate buffer and disrupted with a sonicater in an ice-water bath. The broken cells were centrifuged at l6,500 G for 40 minutes at 4°C, and the resulting supernatant fluid was used as the crude enzyme. β-Lactamase activity was determined by a spectrophotometric method (Antmicrob. Agents Chemother. 17, 355-358, 1980) with cephaloridine as substrate. The concentration of protein was determined by the method of Lowry (J. Biol. Chem. 193, 265-275, 1951).

[2] = system: A.calcoaceticus No. 4; test: In vitro antibacterial activity, agar plate dilution method (MIC); type: cell-based; conditions: Acinetobacter calcoaceticus; A.calcoaceticus No. 4; Mueller Hinton agar, inoculum 10⁶ CFU/ml, 37°C, 16 hours; read-out: Minimum Inhibitory Concentration (MIC: µg/ml)
[3] = system: C.freundii GN346/16; test: as above; type: cell-based; conditions: Citrobacter freundii; C.freundii GN346/16; Mueller Hinton agar, inoculum 10⁶ CFU/ml, 37°C, 16 hours; read-out: Minimum Inhibitory Concentration (MIC: µg/ml)
[4] = system: C.freundii GN346; test: as above; type: cell-based; conditions: Citrobacter freundii; C.freundii GN346 (β-Lactamase-producing strain); Mueller Hinton agar, inoculum 10⁶ CFU/ml, 37°C, 16 hours; read-out: Minimum Inhibitory Concentration (MIC: µg/ml)
[5] = system: E.cloacae 963; test: as above; type: cell-based; conditions: Enterobacter cloacae; E.cloacae 963; Mueller Hinton agar, inoculum 10⁶ CFU/ml, 37°C, 16 hours; read-out: Minimum Inhibitory Concentration (MIC: µg/ml)
[6] = system: E.cloacae Nek 39; test: as above; type: cell-based; conditions: Enterobacter cloacae, NEK39; E.cloacae Nek 39 (β-Lactamase-producing strain); Mueller Hinton agar, inoculum 10⁶ CFU/ml, 37°C, 16 hours; read-out: Minimum Inhibitory Concentration (MIC: µg/ml)
[7] = system: E.coli CSH(RE45); test: as above; type: cell-based; conditions: Escherichia coli, 16 h, read-out: Minimum Inhibitory Concentration (MIC: µg/ml)
[8] = system: E.coli CSH2 (RK1); test: as above; type: cell-based; conditions: Escherichia coli, 16 h, read-out: Minimum Inhibitory Concentration (MIC: µg/ml)
[9] = system: E.coli GN5482; test: as above; type: cell-based; conditions: Escherichia coli; E.coli GN5482 (β-Lactamase-producing strain); Mueller Hinton agar, inoculum 10⁶ CFU/ml, 37°C, 16 hours; read-out: Minimum Inhibitory Concentration (MIC: µg/ml)
[10] = system: E.coli NIHJ JC2; test: as above; type: cell-based; conditions: Escherichia coli, NIHJJC2; E.coli NIHJ JC2; Mueller Hinton agar, inoculum 10⁶ CFU/ml, 37°C, 16 hours; read-out: Minimum Inhibitory Concentration (MIC: µg/ml)
[11] = system: K.oxytoca GN10650; test: as above; type: cell-based; conditions: Klebsiella oxytoca; K.oxytoca GN10650 (β-Lactamase-producing strain); Mueller Hinton agar, inoculum 10⁶ CFU/ml, 37°C, 16 hours; read-out: Minimum Inhibitory Concentration (MIC: µg/ml)
[12] = system: K.pneumoniae No. 42; test: as above; type: cell-based; conditions: Klebsiella pneumoniae; K.pneumoniae No. 42 (β-Lactamase-producing strain); Mueller Hinton agar, inoculum 10⁶ CFU/ml, 37°C, 16 hours; read-out: Minimum Inhibitory Concentration (MIC: µg/ml)
[13] = system: K.pneumoniae PCI-602; test: as above; type: cell-based; conditions: Klebsiella pneumoniae, PCI602; K.pneumoniae PCI-602; Mueller Hinton agar, inoculum 10⁶ CFU/ml, 37°C, 16 hours; read-out: Minimum Inhibitory Concentration (MIC: µg/ml)
[14] = system: M.luteus ATCC9341; test: as above; type: cell-based; conditions: Micrococcus luteus; M.luteus ATCC9341; Mueller Hinton agar, inoculum 10⁶ CFU/ml, 37°C, 16 hours; read-out: Minimum Inhibitory Concentration (MIC: µg/ml)
[15] = system: M.morganii GN5407; test: as above; type: cell-based; conditions: Morganella morganii; M.morganii GN5407 (β-Lactamase-producing strain); Mueller Hinton agar, inoculum 10⁶ CFU/ml, 37°C, 16 hours; read-out: Minimum Inhibitory Concentration (MIC: µg/ml)
[16] = system: P.vulgaris HX-19; test: as above; type: cell-based; conditions: Proteus vulgaris, HX19; P.vulgaris HX-19; Mueller Hinton agar, inoculum 10⁶ CFU/ml, 37°C, 16 hours; read-out: Minimum Inhibitory Concentration (MIC: µg/ml)
[17] = system: P.vulgaris No. 33; test: as above; type: cell-based; conditions: Proteus vulgaris; P.vulgaris No. 33 (β-Lactamase-producing strain); Mueller Hinton agar, inoculum 10⁶ CFU/ml, 37°C, 16 hours; read-out: Minimum Inhibitory Concentration (MIC: µg/ml)
[18] = system: Ps.aeruginosa AK 109; test: as above; type: cell-based; conditions: Pseudomonas aeruginosa, AK109; Ps.aeruginosa AK 109; Mueller Hinton agar, inoculum 10⁶ CFU/ml, 37°C, 16 hours; read-out: Minimum Inhibitory Concentration (MIC: µg/ml)
[19] = system: Ps.aeruginosa AKR17; test: as above; type: cell-based; conditions: Pseudomonas aeruginosa; Ps.aeruginosa AKR17; Mueller Hinton agar, inoculum 10⁶ CFU/ml, 37°C, 16 hours; read-out: Minimum Inhibitory Concentration (MIC: µg/ml)
[20] = system: Ps.aeruginosa IFO3445; test: as above; type: cell-based; conditions: Pseudomonas aeruginosa; Ps.aeruginosa IFO3445; Mueller Hinton agar, inoculum 10⁶ CFU/ml, 37°C, 16 hours; read-out: Minimum Inhibitory Concentration (MIC: µg/ml)
[21] = system: S.aureus 209P NIHJ-JC1; test: as above; type: cell-based; conditions: Staphylococcus aureus; S.aureus 209P NIHJ-JC1; Mueller Hinton agar, inoculum 10⁶ CFU/ml, 37°C, 16 hours; read-out: Minimum Inhibitory Concentration (MIC: µg/ml)
[22] = system: S.aureus BB5703; test: as above; type: cell-based; conditions: Staphylococcus aureus; S.aureus BB5703; Mueller Hinton agar, inoculum 10⁶ CFU/ml, 37°C, 16 hours; read-out: Minimum Inhibitory Concentration (MIC: µg/ml)
[23] = system: S.aureus JS1; test: as above; type: cell-based; conditions: Staphylococcus aureus; S.aureus JS1 (β-Lactamase-producing strain); Mueller Hinton agar, inoculum 10⁶ CFU/ml, 37°C, 16 hours; read-out: Minimum Inhibitory Concentration (MIC: µg/ml)
[24] = system: S.epidermidis IAM12012; test: as above; type: cell-based; conditions: Staphylococcus epidermidis; S.epidermidis IAM12012; Mueller Hinton agar, inoculum 10⁶ CFU/ml, 37°C, 16 hours; read-out: Minimum Inhibitory Concentration (MIC: µg/ml)
[25] = system: S.marcescens IAM 1184; test: as above; type: cell-based; conditions: Serratia marcescens, IAM1184; S.marcescens IAM 1184; Mueller Hinton agar, inoculum 10⁶ CFU/ml, 37°C, 16 hours; read-out: Minimum Inhibitory Concentration (MIC: µg/ml)
[26] = system: S.marcescens No. 16-2; test: as above; type: cell-based; conditions: Serratia marcescens, NO.162; S.marcescens No. 16-2 (β-Lactamase-producing strain); Mueller Hinton agar, inoculum 10⁶ CFU/ml, 37°C, 16 hours; read-out: Minimum Inhibitory Concentration (MIC: µg/ml)
[27] = system: Ps.cepacia 23; test: as above; type: cell-based, Pseudomonas cepacia; conditions: Burkholderia cepacia; Ps.cepacia 23; Mueller Hinton agar, inoculum 10⁶ CFU/ml, 37°C, 16 hours; read-out: Minimum Inhibitory Concentration (MIC: µg/ml)
[28] = system: Ps.maltophilia GN 12873; test: as above; type: cell-based, Pseudomonas maltophilia; conditions: Stenotrophomonas maltophilia, GN12873; Ps.maltophilia GN 12873 (β-Lactamase-producing strain); Mueller Hinton agar, inoculum 10⁶ CFU/ml, 37°C, 16 hours; read-out: Minimum Inhibitory Concentration (MIC: µg/ml)

SMILES	MIC [2]	MIC [3]	MIC [4]	MIC [5]	MIC [6]	MIC [7]	MIC [8]	MIC [9]	MIC [10]	MIC [11]	MIC [12]	MIC [13]	MIC [14]	MIC [15]	MIC [16]	MIC [17]	MIC [18]	MIC [19]	MIC [20]	MIC [21]	further results
CO[C@@]1(NC(=O)Cc2cccs2)C(=O)N2C(C(=O)O)=C(COC(N)=O)CS[C@@H]21 [Cefoxitin, reference compound]																					Specific activity (unit/mg protein) [1]: 0.238 unit/mg protein
CO/N=C(\C(=O)N[C@@H]1C(=O)N2C(C(=O)O)=C(COC(C)=O)CS[C@H]12)c1csc(N)n1 [Cefotaxime, reference compound]	25 µg/mL (≈ 54.9 µM)	0.1 µg/mL (≈ 0.22 µM)	25 µg/mL (≈ 54.9 µM)	0.1 µg/mL (≈ 0.22 µM)	3.12 µg/mL (≈ 6.85 µM)	0.2 µg/mL (≈ 0.439 µM)	0.05 µg/mL (≈ 0.11 µM)	0.39 µg/mL (≈ 0.856 µM)	0.05 µg/mL (≈ 0.11 µM)	0.78 µg/mL (≈ 1.71 µM)	0.05 µg/mL (≈ 0.11 µM)	< 0.006 µg/mL	0.05 µg/mL (≈ 0.11 µM)	0.05 µg/mL (≈ 0.11 µM)	< 0.006 µg/mL	0.025 µg/mL (≈ 0.0549 µM)	12.5 µg/mL (≈ 27.4 µM)	> 100 µg/mL	3.12 µg/mL (≈ 6.85 µM)	1.56 µg/mL (≈ 3.43 µM)	MIC [22]: 3.12 µg/mL (≈ 6.85 µM); MIC [23]: 25 µg/mL (≈ 54.9 µM); MIC [24]: 0.39 µg/mL (≈ 0.856 µM); MIC [25]: 0.05 µg/mL (≈ 0.11 µM); MIC [26]: 25 µg/mL (≈ 54.9 µM); MIC [27]: 6.25 µg/mL (≈ 13.7 µM); MIC [28]: > 100 µg/mL
CC(C)(ON=C(C(=O)NC1C(=O)N2C(C(=O)[O-])=C(C[n+]3ccc4ccccc4c3)CSC12)c1csc(N)n1)C(=O)O (stereo not drawn) [Reference Ex. 1, sodium 7-[2-(2-aminothiazol-4-yl)-2-(l-carboxylato-l-methylethoxyimino)acetamido]-3-(2-isoquinolinio)methyl-3-cephem-4-carboxylate, reference compound]	25 µg/mL	0.2 µg/mL	50 µg/mL	0.2 µg/mL	1.56 µg/mL	0.1 µg/mL	0.05 µg/mL	0.78 µg/mL	0.2 µg/mL	0.2 µg/mL	0.39 µg/mL	0.0125 µg/mL	0.78 µg/mL	0.05 µg/mL	0.0125 µg/mL	0.1 µg/mL	3.12 µg/mL	100 µg/mL	3.12 µg/mL	6.25 µg/mL	MIC [22]: 25 µg/mL; MIC [23]: 50 µg/mL; MIC [24]: 1.56 µg/mL; MIC [25]: 0.05 µg/mL; MIC [26]: 1.56 µg/mL; MIC [27]: 6.25 µg/mL; MIC [28]: 12.5 µg/mL
